Measured values published in patent US11951095B2, “Non-hormonal compositions and methods for male contraception” (PHARMAJOR INTERNATIONAL, priority 2018, dated 2024).
Counter-ions that a name gives are not always drawn.

Columns and labels:
male = conditions: cited from earlier work
male subjects [1] = assay: Example 3: single administration contraceptive effect, semen analysis (IR formulation); format: in vivo, human
Description: A study is undertaken to evaluate the effectiveness of the compositions of the present invention in the treatment of male subjects. The objective of the study is to determine whether oral intake of (R)-Silodosin formulation results in a contraceptive effect.
A total of 7 subjects, aged 18 to 40 years were enrolled in an open-label study. An initial analysis of each subject's semen, collected via masturbation after 3 days of abstinence, is performed by microscopic examination of the fresh semen. Each subject receives one single dose of 12 mg immediate release (R)-Silodosin.
A semen analysis of each subject is conducted 24 hours after the dosing.

[2] = cited from earlier work
[3] = cited from earlier work; remark: listed apart in the source
[4] = 4 mg twice a day; cited from earlier work
Healthy Volunteers [5] = conditions: 4 mg twice a day for 3 days; cited from earlier work
male subjects [6] = conditions: in vivo; cited from earlier work
healthy volunteer men = conditions: in vivo; cited from earlier work
sexually active men = conditions: in vivo; cited from earlier work
[7] = in vivo; cited from earlier work
participants = conditions: cited from earlier work
prostatic smooth muscle = conditions: cited from earlier work
Healthy Volunteers [8] = conditions: cited from earlier work
[9] = single dose 12 mg, immediate release (IR) formulation, 24 h, N = 7
[10] = traditional formulations, with food

## CC(COc1ccccc1)N(CCCl)Cc1ccccc1 (centres unmarked) [phenoxybenzamine]
male; doses up to 20 mg/day
  effect following male orgasm: aspermia
male; in vivo
  reversal of ejaculation block with cessation of treatment: fully reversed

## C[C@H](Cc1cc2c(c(C(N)=O)c1)N(CCCO)CC2)NCCOc1ccccc1OCC(F)(F)F [(R)-Silodosin, (−)-(R)-1-(3-hydroxypropyl)-5-[2-[[2-[2-(2,2,2-trifluoroethoxy)phenoxy]ethyl]amino]propyl]indoline-7-carboxamide]
Male subjects [1]; after a 12-mg single dose
  time for which contraception is maintained: up to 24 h
Male subjects [1]; [9]
  Aspermia (subjects with effect): 6/7
  Azoospermia (subjects with effect): 1/7
  Total, aspermia or azoospermia (subjects with effect): 7/7
[2]
  solubility in acetic acid: very soluble
  solubility in alcohol: freely soluble
  solubility in water: very slightly soluble
[3]; CDER NDA 22-206
  median Tmax: about 2 hours
[3]; [10]
  food effect on Cmax: lower
  food effect on Tmax: delayed
[4]
  ejaculatory disorder: high incidence
Healthy Volunteers [5]
  seminal emission: complete lack of seminal emission
Male subjects [6]
  rate of discomfort upon ejaculation: 100%
Healthy volunteer men
  quality of orgasm: decrease
Sexually active men
  erectile function: decrease
[7]
  sexual desire: decrease
participants; 8 mg for 7 days, 2 hours after intake
  spermatozoa in the semen and post-analysis urine: no spermatozoa
participants; Day 8 to 15 placebo, from day 2 of placebo
  semen analysis after switch to placebo: normal semen analysis
participants; on demand 8 mg prior to intercourse, 6 months
  unintended pregnancy: no unintended pregnancy
Prostatic smooth muscle
  uroselectivity compared with other alpha-1 blockers, such as tamsulosin and naftopidil: greater

## CCOc1ccccc1OCCN[C@H](C)Cc1ccc(OC)c(S(N)(=O)=O)c1 [tamsulosin, (−)-(R)-5-[2-[[2-(o-Ethoxyphenoxy)ethyl]amino]propyl]-2-methoxybenzenesulfonamide, monohydrochloride]
Healthy Volunteers [8]; 0.8-mg dose
  ejaculation: An ejaculation was reached
Healthy Volunteers [8]; in vivo
  functional sperm count: significantly reduced
  side effects including discomfort on ejaculation: reported by some subjects
Healthy Volunteers [8]; single dose of 0.4 or 0.8 mg, 4 to 6 hours after dosing
  volume of semen: dose dependent decrease
